Our source for the IC50 values is patent US20260035384A1, “COMPOUND CONTAINING CYCLOHEXYL” (CHIA TAI TIANQING PHARMACEUTICAL GROUP CO., LTD., priority 2022, published 2026).

The structures appear in SMILES notation.

This experiment concerns LNCaP cells. The experiment is described as follows: Assay on inhibitory activity for LNCaP cell proliferation (CCK-8). The experiment is classed as cell-based. The conditions noted are these: 168 h incubation. As for the experimental part: LNCaP cells in a good growth state were taken, washed with PBS, digested with pancreatin, and added with 2% CSS—FBS phenol red-free 1640 complete medium to terminate the digestion. The cells were collected by using a centrifuge tube, adjusted to a cell density of 1×10^5 cells/mL, and seeded in a 96-well plate (100 μL/well). Meanwhile, compounds were added using a nanoliter pipettor such that the final concentrations of the compounds were 10000 nM-0.61 nM. Two duplicate wells were set for each concentration, and meanwhile, a control was set. After another 168 h of incubation in the cell incubator, the detection reagent CCK-8 (manufacturer: Dojindo, 10 μL/well) was added.

Turning to `N#Cc1ccc(O[C@H]2CC[C@H](NC(=O)c3ccc(C4CCN(C[C@H]5C[C@@H](n6ccc7c8c(C9CCC(=O)NC9=O)noc8ccc76)C5)CC4)nn3)CC2)cc1Cl` (single isomer, unassigned) [Compound 51], the IC50 (usually the concentration that gives 50% inhibition) (Homo sapiens) is below 1 µM.
As for `N#Cc1ccc(O[C@H]2CC[C@H](NC(=O)c3ccc(C4CCN(C[C@H]5C[C@H](n6ccc7c8c(C9CCC(=O)NC9=O)noc8ccc76)C5)CC4)nn3)CC2)cc1Cl` (single isomer, unassigned) [Compound 52], the IC50 (Homo sapiens) is below 1 µM.
For `N#Cc1ccc(O[C@H]2CC[C@H](NC(=O)c3ccc(N4CCC(N5CCc6ccc7c(C8CCC(=O)NC8=O)noc7c6CC5)CC4)nn3)CC2)cc1Cl` (stereo partly drawn) [Compound 23], the IC50 (Homo sapiens) is below 1 µM.
With `N#Cc1ccc(O[C@H]2CC[C@H](NC(=O)c3ccc(N4CCN(CC5Cc6cc(C7CCC(=O)NC7=O)c7ccoc7c6C5)CC4)nn3)CC2)cc1Cl` (stereo partly drawn) [Compound 29], the IC50 (Homo sapiens) is below 1 µM.
In turn, `N#Cc1ccc(O[C@H]2CC[C@H](NC(=O)c3ccc(C4CCN(CC5Cc6ccc7c(C8CCC(=O)NC8=O)noc7c6C5)CC4)nn3)CC2)cc1Cl` (stereo partly drawn) [Compound 30] came in with an IC50 (Homo sapiens) below 1 µM.
Compound `N#Cc1ccc(O[C@H]2CC[C@H](NC(=O)c3ccc(C4CCN(CC5Cc6ccc7c(C8CCC(=O)NC8=O)noc7c6C5)CC4)nn3)CC2)cc1Cl` (stereo partly drawn) [Compound 31] showed an IC50 below 1 µM.
Under “Homo sapiens”, `N#Cc1ccc(O[C@H]2CC[C@H](NC(=O)c3ccc(C4CCN(CC5Cc6ccc7c(C8CCC(=O)NC8=O)coc7c6C5)CC4)nn3)CC2)cc1Cl` (stereo partly drawn) [Compound 32] came in with an IC50 below 1 µM.
For the compound `N#Cc1ccc(O[C@H]2CC[C@H](NC(=O)c3ccc(C4CCN(CC5Cc6ccc7c(C8CCC(=O)NC8=O)coc7c6C5)CC4)nn3)CC2)cc1Cl` (stereo partly drawn) [Compound 33], the IC50 was below 1 µM.
Turning to `N#Cc1ccc(O[C@H]2CC[C@H](NC(=O)c3ccc(N4CCC(CN5CC(n6ccc7c8c(C9CCC(=O)NC9=O)noc8ccc76)C5)CC4)nn3)CC2)cc1Cl` (stereo partly drawn) [Compound 38], the IC50 (Homo sapiens) is below 1 µM.
Compound `N#Cc1ccc(O[C@H]2CC[C@H](NC(=O)c3ccc(N4CCC(N5CC(n6ccc7c8c(C9CCC(=O)NC9=O)noc8ccc76)C5)CC4)nn3)CC2)cc1Cl` (stereo partly drawn) [Compound 39] yielded an IC50 (Homo sapiens) below 1 µM.
In turn, `N#Cc1ccc(O[C@H]2CC[C@H](NC(=O)c3ccc(N4CCC(N5CCC(n6ccc7c8c(C9CCC(=O)NC9=O)noc8ccc76)CC5)CC4)nn3)CC2)cc1Cl` (stereo partly drawn) [Compound 40] displayed an IC50 (Homo sapiens) below 1 µM.
Regarding `N#Cc1ccc(O[C@H]2CC[C@H](NC(=O)c3ccc(N4CCC(N5CC(n6ncc7c8c(C9CCC(=O)NC9=O)noc8ccc76)C5)CC4)nn3)CC2)cc1Cl` (stereo partly drawn) [Compound 43], the IC50 (Homo sapiens) is below 1 µM.
Still for that read-out and setting: next, `N#Cc1ccc(O[C@H]2CC[C@H](NC(=O)c3ccc(N4CCC(CN5CC(n6cc7c(ccc8onc(C9CCC(=O)NC9=O)c87)n6)C5)CC4)nn3)CC2)cc1Cl` (stereo partly drawn) [Compound 44]: below 1 µM.
`N#Cc1ccc(O[C@H]2CC[C@H](NC(=O)c3ccc(C4CCN([C@H]5C[C@@H](n6ccc7c8c(C9CCC(=O)NC9=O)noc8ccc76)C5)CC4)nn3)CC2)cc1Cl` (stereo partly drawn) [Compound 49] displayed an IC50 (Homo sapiens) below 1 µM.
On to `N#Cc1ccc(O[C@H]2CC[C@H](NC(=O)c3ccc(C4CCN([C@H]5C[C@H](n6ccc7c8c(C9CCC(=O)NC9=O)noc8ccc76)C5)CC4)nn3)CC2)cc1Cl` (stereo partly drawn) [Compound 50], for which the IC50 (Homo sapiens) was below 1 µM.
Same read-out and setting: next, `N#Cc1ccc(O[C@H]2CC[C@H](NC(=O)c3ccc(C4CCN([C@H]5CC[C@@H](n6ccc7c8c(C9CCC(=O)NC9=O)noc8ccc76)CC5)CC4)nn3)CC2)cc1Cl` (stereo partly drawn) [Compound 54]: below 1 µM; `N#Cc1ccc(O[C@H]2CC[C@H](NC(=O)c3ccc(C4CCN([C@H]5CC[C@H](n6ccc7c8c(C9CCC(=O)NC9=O)noc8ccc76)CC5)CC4)nn3)CC2)cc1Cl` (stereo partly drawn) [Compound 55]: below 1 µM.
In the case of `N#Cc1ccc(O[C@H]2CC[C@H](NC(=O)c3ccc(N4CCC(CN5Cc6cc7onc(C8CCC(=O)NC8=O)c7cc6C5)CC4)nn3)CC2)cc1Cl` (stereo partly drawn) [Compound 100], the IC50 (Homo sapiens) is below 1 µM.
